A short description of the data set: physchem. Type of data set: physicochemical. As for the experimental part:
In the context of the present invention, the term “water-soluble agrochemically active compound” is generally understood as meaning an insecticidally and/or acaricidally active compound (i.e. an active compound that controls insects and/or Acarina) which has (at 20° C.) a solubility of ≧10 mg/l in water. Compounds A and B meet this requirement.

For two molecules, solubility results are on record in patent publication US20110086848A1, “Agrochemical Compositions Comprising Alkyl Polypropylene Glycol Polyethylene Glycol” (Bayer CropScience AG, priority 2009, published 2011).

Read-outs that look alike come from different tables or passages of the source.

What is called solubility is the concentration that dissolves in the medium under given conditions.

For `C/C(=N\C#N)N(Cc1ccc(Cl)nc1)CC(F)F` [Compound A], the solubility (at 20° C., stated as meeting the definition of water-soluble, read-out: solubility in water) was no less than 10 µg/mL. As for `O=C1C=C(N(Cc2ccc(Cl)nc2)CC(F)F)CO1` [Compound B], for the setting “20 °C, water”, the solubility was no less than 10 µg/mL.
